Square brackets hold non-standard residues; d marks the D form. Ends that are not written are not given here. Peptide text beside a SMILES is read from it.
Tests used:
Type in all cases: cell-based
[1] = tested on: melanoma cell line WM852; experiment: Melanoma growth reduction (Example 5); conditions: for % Growth Reduction (7 days) WM852-2%: 2% tumor media; for % Growth Reduction (7 days) WM852-PF: PF media
Procedure: (§1) Melanoma cell lines WM-239-A (metastatic melanoma), WM278 (primary melanoma), WM793 (primary melanoma) and WM1158 (metastatic melanoma) were seeded in 24-well plates at a concentration of 7.5×10^4 cells/ml containing 2% tumor medium.
(§2) Peptides (SEQ ID NO:6) and D-(SEQ ID NO:6), in which each amino acid residue is a D-amino residue or a glycine residue, were frozen at -20° C. in […] aliquots at a concentration of 25 mg/ml. Each peptide was then dissolved in sterile distilled water at a dilution of 1:1,000 or 1:5,000 to provide peptide concentrations of 25 μg/ml or 5 μg/ml, respectively. The peptides at the 25 μg/ml or 5 μg/ml concentrations were then added to the plates containing the melanoma cells. The amount of ^3 H-thymidine incorporation for each well was taken on days 1, 3, and 7.
(§3) Peptides (SEQ ID NO:10) and D-(SEQ ID NO:10), in which each amino acid is a D-amino acid residue, are tested for % growth reduction of melanoma cell lines WM852 (grown in 2% tumor media or PF media), WM983A (grown in 2% tumor media or PF media), WM793 (grown in 2% tumor media), and WM1985 (grown in PF media) according to the procedure of Example 4, except that only a concentration of 25 μg/ml was employed for (SEQ ID NO:10), and concentrations of 1.0, 2.5, 5.0, 10.0, and 25.0 μg/ml were employed for D-(SEQ ID NO:10).

[2] = tested on: melanoma cell line WM1985; experiment: Melanoma growth reduction (Example 5); conditions: PF media
Procedure: as §1, §2, §3

[3] = tested on: melanoma cell line WM793; experiment: Melanoma growth reduction (Example 5); conditions: 2% tumor media
Procedure: as §1, §2, §3

[4] = tested on: melanoma cell line WM983A; experiment: Melanoma growth reduction (Example 5); conditions: for % Growth Reduction (7 days) WM-983A-2%: 2% tumor media; for % Growth Reduction (7 days) WM983A-PF: PF media
Procedure: as §1, §2, §3

[5] = tested on: WM1158 (metastatic melanoma); experiment: Melanoma growth reduction, 3H-thymidine incorporation (Example 4); conditions: 2% tumor medium
Procedure: as §1, §2

[6] = tested on: WM278 (primary melanoma); experiment: as above; conditions: 2% tumor medium
Procedure: as §1, §2

[7] = tested on: WM793 (primary melanoma); experiment: as above; conditions: 2% tumor medium
Procedure: as §1, §2

[8] = tested on: WM-239-A (metastatic melanoma); experiment: as above; conditions: 2% tumor medium
Procedure: as §1, §2

Compound: (SEQ ID NO:10): peptide of SEQ ID NO:10, comparator not marked D; possibly the same as (SEQ ID NO:10)-NH2 (KKLLKKLKKLLKKL; not fully specified) [reference compound]
- % Growth Reduction (7 days) WM852-2% ([1]; dose 25 μg/ml): 0%
- % Growth Reduction (7 days) WM852-PF ([1]; dose 25 μg/ml): 54.0%
- % Growth Reduction (7 days) WM1985-PF ([2]; dose 25 μg/ml): 43.0%
- % Growth Reduction (7 days) WM793-2% ([3]; dose 25 μg/ml): 8.3%
- % Growth Reduction (7 days) WM-983A-2% ([4]; dose 25 μg/ml): 0%
- % Growth Reduction (7 days) WM983A-PF ([4]; dose 25 μg/ml): 60.5%

Compound: CC(C)C[C@@H](NC(=O)[C@@H](CCCCN)NC(=O)[C@@H](CCCCN)NC(=O)[C@@H](CC(C)C)NC(=O)[C@@H](CC(C)C)NC(=O)[C@@H](CCCCN)NC(=O)[C@@H](CCCCN)NC(=O)[C@@H](CC(C)C)NC(=O)[C@@H](CCCCN)NC(=O)[C@@H](CCCCN)NC(=O)[C@@H](CC(C)C)NC(=O)[C@@H](CC(C)C)NC(=O)[C@@H](CCCCN)NC(=O)[C@H](N)CCCCN)C(N)=O [D-(SEQ ID NO:10)] (H-[dK][dK][dL][dL][dK][dK][dL][dK][dK][dL][dL][dK][dK][dL]-NH2)
- % Growth Reduction (7 days) WM852-2% ([1]; dose 1.0 μg/ml): 3.0%
- % Growth Reduction (7 days) WM852-PF ([1]; dose 1.0 μg/ml): 2.9%
- % Growth Reduction (7 days) WM852-2% ([1]; dose 2.5 μg/ml): 5.4%
- % Growth Reduction (7 days) WM852-PF ([1]; dose 2.5 μg/ml): 22.9%
- % Growth Reduction (7 days) WM852-2% ([1]; dose 5.0 μg/ml): 8.8%
- % Growth Reduction (7 days) WM852-PF ([1]; dose 5.0 μg/ml): 32.4%
- % Growth Reduction (7 days) WM852-2% ([1]; dose 10.0 μg/ml): 16.2%
- % Growth Reduction (7 days) WM852-PF ([1]; dose 10.0 μg/ml): 80.6%
- % Growth Reduction (7 days) WM852-2% ([1]; dose 25 μg/ml): 84.7%
- % Growth Reduction (7 days) WM852-PF ([1]; dose 25 μg/ml): 91.1%
- % Growth Reduction (7 days) WM1985-PF ([2]; dose 1.0 μg/ml): 5.5%
- % Growth Reduction (7 days) WM1985-PF ([2]; dose 2.5 μg/ml): 23.6%
- % Growth Reduction (7 days) WM1985-PF ([2]; dose 5.0 μg/ml): 52.1%
- % Growth Reduction (7 days) WM1985-PF ([2]; dose 10.0 μg/ml): 84.3%
- % Growth Reduction (7 days) WM1985-PF ([2]; dose 25 μg/ml): 92.6%
- % Growth Reduction (7 days) WM793-2% ([3]; dose 2.5 μg/ml): 18.2%
- % Growth Reduction (7 days) WM793-2% ([3]; dose 5.0 μg/ml): 0%
- % Growth Reduction (7 days) WM793-2% ([3]; dose 10.0 μg/ml): 12.3%
- % Growth Reduction (7 days) WM793-2% ([3]; dose 25 μg/ml): 84.9%
- % Growth Reduction (7 days) WM-983A-2% ([4]; dose 1.0 μg/ml): 0%
- % Growth Reduction (7 days) WM983A-PF ([4]; dose 1.0 μg/ml): 3.3%
- % Growth Reduction (7 days) WM-983A-2% ([4]; dose 2.5 μg/ml): 0%
- % Growth Reduction (7 days) WM983A-PF ([4]; dose 2.5 μg/ml): 13.9%
- % Growth Reduction (7 days) WM-983A-2% ([4]; dose 5.0 μg/ml): 0%
- % Growth Reduction (7 days) WM983A-PF ([4]; dose 5.0 μg/ml): 29.8%
- % Growth Reduction (7 days) WM-983A-2% ([4]; dose 10.0 μg/ml): 13.8%
- % Growth Reduction (7 days) WM983A-PF ([4]; dose 10.0 μg/ml): 84.9%
- % Growth Reduction (7 days) WM-983A-2% ([4]; dose 25 μg/ml): 71.3%
- % Growth Reduction (7 days) WM983A-PF ([4]; dose 25 μg/ml): 90.0%

Compound: (SEQ ID NO:6): peptide of SEQ ID NO:6, comparator not marked D; possibly the same as (SEQ ID NO:6)-NH2 (GIGKFLKSAKKFGKAFVKILNS; not fully specified) [reference compound]
- % Growth Reduction (7 days) WM1158 ([5]; dose 5 μg/ml): 0%
- % Growth Reduction (7 days) WM1158 ([5]; dose 25 μg/ml): 98.5%
- % Growth Reduction (7 days) WM-278 ([6]; dose 5 μg/ml): 0%
- % Growth Reduction (7 days) WM-278 ([6]; dose 25 μg/ml): 96.0%
- % Growth Reduction (7 days) WM793 ([7]; dose 5 μg/ml): 11.6%
- % Growth Reduction (7 days) WM793 ([7]; dose 25 μg/ml): 98.0%
- % Growth Reduction (7 days) WM239-A ([8]; dose 5 μg/ml): 0%
- % Growth Reduction (7 days) WM239-A ([8]; dose 25 μg/ml): 95.8%

From patent US5792831A, “Analogues of magainin peptides containing D-amino acids” (priority 1994, dated 1998)
